Laboratory results: PubChem BioAssay (NCI)
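Five concentrations, 48 hours, 96-well plates. At the GI50, growth is halved. TGI: total growth inhibition.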

Key:
Experiment in all cases: NCI tumour cell line growth inhibition, 48 h
A549 NSCLC = tested on: A549 NSCLC
KM12 colon = tested on: KM12 colon
LOX IMVI melanoma = tested on: LOX IMVI melanoma
NCI-H460 lung = tested on: NCI-H460 lung
NCI/ADR-RES ovarian = tested on: NCI/ADR-RES ovarian
OVCAR-3 ovarian = tested on: OVCAR-3 ovarian
OVCAR-8 ovarian = tested on: OVCAR-8 ovarian
SF-539 CNS = tested on: SF-539 CNS
SW-620 colon = tested on: SW-620 colon
UACC-62 melanoma = tested on: UACC-62 melanoma

Row | SMILES | GI50 (A549 NSCLC) [µM] | TGI (A549 NSCLC) [µM] | GI50 (KM12 colon) [µM] | TGI (KM12 colon) [µM] | GI50 (LOX IMVI melanoma) [µM] | TGI (LOX IMVI melanoma) [µM] | GI50 (NCI-H460 lung) [µM] | TGI (NCI-H460 lung) [µM] | GI50 (NCI/ADR-RES ovarian) [µM] | TGI (NCI/ADR-RES ovarian) [µM] | GI50 (OVCAR-3 ovarian) [µM] | TGI (OVCAR-3 ovarian) [µM] | GI50 (OVCAR-8 ovarian) [µM] | TGI (OVCAR-8 ovarian) [µM] | GI50 (SF-539 CNS) [µM] | TGI (SF-539 CNS) [µM] | GI50 (SW-620 colon) [µM] | TGI (SW-620 colon) [µM] | GI50 (UACC-62 melanoma) [µM] | TGI (UACC-62 melanoma) [µM]
1 | COc1cc(-c2nc3sccn3c2-c2ccnc(NCCNS(=O)(=O)c3ccc(F)cc3)n2)ccc1F | 2.44 | > 100 | 1.9 | > 100 | 1.65 | > 100 | 2.44 | > 100 | 1.94 | > 100 | 3.23 | > 100 | 2.12 | > 100 | 4.86 | > 100 | 5.05 | > 100 | 0.688 | 2.55
2 | CN(C)c1ccc(/C=N/NC(=S)Nc2ccccc2)cc1 |  | > 100 |  | > 100 |  | > 100 |  | > 100 |  | > 100 |  | > 100 |  | > 100 |  | > 100 |  | > 100 |  | > 100
3 | C=C(C)C(=O)O[C@@H]1C[C@@]2(C)O[C@@H]2C[C@H](O)/C(C)=C/[C@H]2OC(=O)C(=C)[C@@H]21 |  | > 100 |  | > 100 |  | > 100 |  | > 100 |  | > 100 |  | > 100 |  | > 100 |  | > 100 |  | 38.9 |  | > 100
4 | CC(=O)OCc1ccc2c(c1)C(O)NC(=O)O2 (stereo not given) |  | > 100 |  | > 100 |  | > 100 |  | > 100 |  | > 100 |  | 59.4 |  | > 100 |  | > 100 |  | > 100 |  | > 100
5 | COc1ccc2ncnc(Nc3ccc(OCc4ccccc4)cc3)c2c1 | 5.98 | > 25 | 8.67 | > 25 | 7.85 | > 25 | 7.58 | > 25 | 7.56 | > 25 | 7.08 | > 23.1 | 8.39 | > 25 | 8.96 | > 25 | 9.04 | > 25 | 6.12 | > 18.1
6 | CC(=C(c1ccc(OCCN2CCCCC2)cc1)c1ccc(OCCN2CCCCC2)cc1)c1ccc(Cl)cc1 | 0.457 | 0.914 | 0.454 | 0.887 | 0.406 | 0.754 | 0.452 | 0.844 | 0.446 | 0.858 | 0.415 | 0.783 | 0.484 | 1.04 | 0.393 | 0.738 | 0.408 | 0.794 | 0.442 | 0.845
7 | COc1cc2c(cc1OC)-c1cc(OC)c(OC)cc1C(CN(C)C)C2 (stereo not given) | > 10 | > 10 | > 10 | > 10 | > 10 | > 10 | > 10 | > 10 | > 10 | > 10 | > 10 | > 10 | > 10 | > 10 | > 10 | > 10 | > 10 | > 10 | > 10 | > 10
8 | COc1ccc(CN2C(=O)C(Cl)=C(Nc3cccc(C(F)(F)F)c3)C2=O)cc1 | 8.54 | > 100 | 7.83 | 25.6 | 3.08 | 14.1 | 3.1 | 15.1 | 7.43 | 45.6 | 4.19 | 15.8 | 7.65 | 30.8 | 1.77 | 12 | 3.61 | 15.7 | 5.33 | 19.1
9 | CCNC(=O)C#Cc1ccc2c(C(=Nc3ccc(CN(C)C)cc3)c3ccccc3)c(O)[nH]c2c1 | 0.0401 | > 5.34 | 0.0323 | > 10 | 0.0067 | 0.163 | 0.0106 | 1.96 | 1.7 | > 10 | 0.752 | > 10 | 1.04 | > 10 | 0.121 | 1.27 | 0.0156 | 1.54 | 0.00709 | 0.0775
10 | Nc1nc2[nH]cc(CCc3ccc(C(=O)N[C@@H](CCC(=O)O)C(=O)O)cc3)c2c(=O)[nH]1 | 0.587 | > 100 |  | > 100 | 0.111 | > 100 | 0.272 | > 100 | > 100 | > 100 |  | > 100 | 0.154 | > 100 | 0.0774 |  |  | > 100 |  | > 100
11 | C=C1C[C@H](O)[C@H](Br)C(C)(C)[C@@]12CCC(C)=C(Cl)C2 | 0.261 | 1.96 | 0.311 | 2.11 | 0.483 | 2.07 | 0.263 | 1.61 | 0.247 | 11.2 | 0.509 | 4.13 | 0.416 | 15.3 | 0.445 | 11.3 | 0.625 | 11.3 | 0.675 | 3.15
